The source of these data is the NIST ThermoML archive (doi:10.1021/je2001649).

The conditions of this data set: Crystal; visual observation.

± gives the expanded uncertainty stated by the source.

Regarding `c1ccc2c(c1)Nc1ccccc1S2` [10H-phenothiazine], the Normal melting temperature came out at 183 ± 1 °C.
